Where two headings read alike, the source gives them in different places.
Columns and labels:
Test in all cases: Test B pre-/postemergence plant response
Format in all cases: in vivo
corn (Zea mays) = conditions: Zea mays; for Corn plant response rating (crop injury, 0 = no effect, 100 = complete kill) at 16 g/ha: 16 g ai/ha; for Corn plant response rating (crop injury, 0 = no effect, 100 = complete kill) at 31 g/ha: 31 g ai/ha, 100 complete control; for Corn plant response rating (crop injury, 0 = no effect, 100 = complete kill) at 62 g/ha: 62 g ai/ha; for Corn plant response rating (crop injury, 0 = no effect, 100 = complete kill) at 125 g/ha: 125 g ai/ha
In short: (§1)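 Visual scoring from 0 (no effect) to 100 (complete control) against untreated controls was done 13 to 15 days after greenhouse treatment. Chemicals were formulated in a surfactant-containing non-phytotoxic solvent and applied to soil preemergence or to 1- to 4-leaf (2-18 cm) plants postemergence.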

kochia (Kochia scoparia) = conditions: Postemergence
In short: as §1

[1] = tested on: large crabgrass (Digitaria sanguinalis); conditions: Digitaria sanguinalis, read-out: Plant response rating, Crabgrass, Large; for pest or weed control at 16 g/ha: 16 g ai/ha; for pest or weed control at 31 g/ha: 31 g ai/ha, 100 complete control; for pest or weed control at 62 g/ha: 62 g ai/ha; for pest or weed control at 125 g/ha: 125 g ai/ha
In short: as §1

[2] = tested on: woolly cupgrass (Eriochloa villosa); conditions: Eriochloa villosa, read-out: Plant response rating, Cupgrass, Woolly; for pest or weed control at 16 g/ha: 16 g ai/ha; for pest or weed control at 31 g/ha: 31 g ai/ha, 100 complete control; for pest or weed control at 62 g/ha: 62 g ai/ha; for pest or weed control at 125 g/ha: 125 g ai/ha
In short: as §1

[3] = tested on: catchweed bedstraw (Galium aparine); conditions: Galium aparine, pre-emergence, Preemergence, read-out: Plant response rating, Galium
In short: as §1

[4] = tested on: yellow nutsedge (Cyperus esculentus); conditions: Cyperus, read-out: Plant response rating, Nutsedge, Yellow; for pest or weed control at 16 g/ha: 16 g ai/ha; for pest or weed control at 31 g/ha: 31 g ai/ha, 100 complete control; for pest or weed control at 62 g/ha: 62 g ai/ha; for pest or weed control at 125 g/ha: 125 g ai/ha
In short: as §1

[5] = tested on: velvetleaf (Abutilon theophrasti); conditions: Abutilon theophrasti, read-out: Plant response rating, Velvetleaf; for pest or weed control at 16 g/ha: 16 g ai/ha; for pest or weed control at 31 g/ha: 31 g ai/ha, 100 complete control; for pest or weed control at 62 g/ha: 62 g ai/ha; for pest or weed control at 125 g/ha: 125 g ai/ha
In short: as §1

[6] = tested on: goosegrass (Eleusine indica); conditions: Eleusine indica, read-out: Plant response rating, Goosegrass; for pest or weed control at 16 g/ha: 16 g ai/ha; for pest or weed control at 31 g/ha: 31 g ai/ha, 100 complete control; for pest or weed control at 62 g/ha: 62 g ai/ha; for pest or weed control at 125 g/ha: 125 g ai/ha
In short: as §1

[7] = tested on: blackgrass (Alopecurus myosuroides); conditions: Alopecurus myosuroides, read-out: Plant response rating, Blackgrass; for pest or weed control at 16 g/ha: 16 g ai/ha; for pest or weed control at 31 g/ha: 31 g ai/ha, 100 complete control; for pest or weed control at 62 g/ha: 62 g ai/ha; for pest or weed control at 125 g/ha: 125 g ai/ha
In short: as §1

[8] = tested on: cocklebur (Xanthium strumarium); conditions: Xanthium strumarium, read-out: Plant response rating, Cocklebur; for pest or weed control at 62 g/ha: 62 g ai/ha; for pest or weed control at 125 g/ha: 125 g ai/ha
In short: as §1

[9] = tested on: johnsongrass (Sorghum halepense); conditions: Sorghum halepense, read-out: Plant response rating, Johnsongrass; for pest or weed control at 16 g/ha: 16 g ai/ha; for pest or weed control at 31 g/ha: 31 g ai/ha, 100 complete control; for pest or weed control at 62 g/ha: 62 g ai/ha; for pest or weed control at 125 g/ha: 125 g ai/ha
In short: as §1

wild oat (Avena fatua) = conditions: Avena fatua, read-out: Plant response rating, Oat, Wild; for pest or weed control at 16 g/ha: 16 g ai/ha; for pest or weed control at 31 g/ha: 31 g ai/ha, 100 complete control; for pest or weed control at 62 g/ha: 62 g ai/ha; for pest or weed control at 125 g/ha: 125 g ai/ha
In short: as §1

[10] = tested on: common ragweed (Ambrosia elation); conditions: Ambrosia, read-out: Plant response rating, Ragweed; for pest or weed control at 16 g/ha: 16 g ai/ha; for pest or weed control at 31 g/ha: 31 g ai/ha, 100 complete control; for pest or weed control at 62 g/ha: 62 g ai/ha; for pest or weed control at 125 g/ha: 125 g ai/ha
In short: as §1

[11] = post-emergence, Postemergence, scale 0 to 100
[12] = post-emergence, Postemergence, scale 0 to 100, 0 no effect
[13] = pre-emergence, Preemergence, scale 0 to 100 (0 no effect, 100 complete control)
[14] = pre-emergence, Preemergence, 0 to 100 scale, 0 no effect
[15] = pre-emergence, Preemergence, scale 0 to 100

CCc1cc(-c2ccc(C(F)(F)F)cc2)nn1-c1c(O)cnn(C)c1=O [Compound 11, 4-[5-ethyl-3-[4-(trifluoromethyl)phenyl]-1H-pyrazol-1-yl]-5-hydroxy-2-methyl-3(2H)-pyridazinone]
Corn plant response rating (crop injury, 0 = no effect, 100 = complete kill) at 16 g/ha (corn (Zea mays); [11]): 100%
Corn plant response rating (crop injury, 0 = no effect, 100 = complete kill) at 31 g/ha (corn (Zea mays); [12]): 100%
Corn plant response rating (crop injury, 0 = no effect, 100 = complete kill) at 62 g/ha (corn (Zea mays); [11]): 100%
Corn plant response rating (crop injury, 0 = no effect, 100 = complete kill) at 125 g/ha (corn (Zea mays); [11]): 100%
Corn plant response rating (crop injury, 0 = no effect, 100 = complete kill) at 16 g/ha (corn (Zea mays); [13]): 70%
Corn plant response rating (crop injury, 0 = no effect, 100 = complete kill) at 31 g/ha (corn (Zea mays); [14]): 85%
Corn plant response rating (crop injury, 0 = no effect, 100 = complete kill) at 62 g/ha (corn (Zea mays); [15]): 95%
Corn plant response rating (crop injury, 0 = no effect, 100 = complete kill) at 125 g/ha (corn (Zea mays); [15]): 100%
Plant response rating, Kochia (kochia (Kochia scoparia); 16 g ai/ha, scale 0 to 100): 0
Plant response rating, Kochia (kochia (Kochia scoparia); 31 g ai/ha, scale 0 to 100, 0 no effect, 100 complete control): 0
Plant response rating, Kochia (kochia (Kochia scoparia); 62 g ai/ha, scale 0 to 100): 0
Plant response rating, Kochia (kochia (Kochia scoparia); 125 g ai/ha, scale 0 to 100): 0
pest or weed control at 16 g/ha [1, 11]: 98%
pest or weed control at 31 g/ha [1, 12]: 100%
pest or weed control at 62 g/ha [1, 11]: 100%
pest or weed control at 125 g/ha [1, 11]: 100%
pest or weed control at 16 g/ha [1, 13]: 90%
pest or weed control at 31 g/ha [1, 14]: 90%
pest or weed control at 62 g/ha [1, 15]: 100%
pest or weed control at 125 g/ha [1, 15]: 100%
pest or weed control at 16 g/ha [2, 11]: 95%
pest or weed control at 31 g/ha [2, 12]: 100%
pest or weed control at 62 g/ha [2, 11]: 100%
pest or weed control at 125 g/ha [2, 11]: 100%
pest or weed control at 16 g/ha [2, 13]: 100%
pest or weed control at 31 g/ha [2, 14]: 100%
pest or weed control at 62 g/ha [2, 15]: 100%
pest or weed control at 125 g/ha [2, 15]: 100%
pest or weed control at 16 g/ha ([3]; 16 g ai/ha, scale 0 to 100 (0 no effect, 100 complete control)): 0%
pest or weed control at 31 g/ha ([3]; 31 g ai/ha, 0 to 100 scale, 0 no effect, 100 complete control): 0%
pest or weed control at 62 g/ha ([3]; 62 g ai/ha, scale 0 to 100): 0%
pest or weed control at 125 g/ha ([3]; 125 g ai/ha, scale 0 to 100): 0%
pest or weed control at 16 g/ha [4, 11]: 0%
pest or weed control at 31 g/ha [4, 12]: 0%
pest or weed control at 62 g/ha [4, 11]: 0%
pest or weed control at 125 g/ha [4, 11]: 0%
pest or weed control at 16 g/ha [4, 13]: 0%
pest or weed control at 31 g/ha [4, 14]: 0%
pest or weed control at 62 g/ha [4, 15]: 0%
pest or weed control at 125 g/ha [4, 15]: 0%
pest or weed control at 16 g/ha [5, 11]: 0%
pest or weed control at 31 g/ha [5, 12]: 0%
pest or weed control at 62 g/ha [5, 11]: 0%
pest or weed control at 125 g/ha [5, 11]: 0%
pest or weed control at 16 g/ha [5, 13]: 0%
pest or weed control at 31 g/ha [5, 14]: 0%
pest or weed control at 62 g/ha [5, 15]: 0%
pest or weed control at 125 g/ha [5, 15]: 0%
pest or weed control at 16 g/ha [6, 11]: 100%
pest or weed control at 31 g/ha [6, 12]: 100%
pest or weed control at 62 g/ha [6, 11]: 100%
pest or weed control at 125 g/ha [6, 11]: 100%
pest or weed control at 16 g/ha [6, 13]: 85%
pest or weed control at 31 g/ha [6, 14]: 90%
pest or weed control at 62 g/ha [6, 15]: 100%
pest or weed control at 125 g/ha [6, 15]: 100%
pest or weed control at 16 g/ha [7, 11]: 100%
pest or weed control at 31 g/ha [7, 12]: 100%
pest or weed control at 62 g/ha [7, 11]: 100%
pest or weed control at 125 g/ha [7, 11]: 100%
pest or weed control at 16 g/ha [7, 13]: 100%
pest or weed control at 31 g/ha [7, 14]: 100%
pest or weed control at 62 g/ha [7, 15]: 100%
pest or weed control at 125 g/ha [7, 15]: 100%
pest or weed control at 16 g/ha ([8]; post-emergence, Postemergence, 16 g ai/ha, scale 0 to 100): 0%
pest or weed control at 31 g/ha ([8]; post-emergence, Postemergence, 31 g ai/ha, scale 0 to 100, 0 no effect, 100 complete control): 0%
pest or weed control at 62 g/ha [8, 11]: 0%
pest or weed control at 125 g/ha [8, 11]: 0%
pest or weed control at 62 g/ha [8, 15]: 0%
pest or weed control at 125 g/ha [8, 15]: 0%
pest or weed control at 16 g/ha [9, 11]: 100%
pest or weed control at 31 g/ha [9, 12]: 100%
pest or weed control at 62 g/ha [9, 11]: 100%
pest or weed control at 125 g/ha [9, 11]: 100%
pest or weed control at 16 g/ha [9, 13]: 90%
pest or weed control at 31 g/ha [9, 14]: 98%
pest or weed control at 62 g/ha [9, 15]: 100%
pest or weed control at 125 g/ha [9, 15]: 100%
pest or weed control at 16 g/ha (wild oat (Avena fatua); [11]): 100%
pest or weed control at 31 g/ha (wild oat (Avena fatua); [12]): 100%
pest or weed control at 62 g/ha (wild oat (Avena fatua); [11]): 100%
pest or weed control at 125 g/ha (wild oat (Avena fatua); [11]): 100%
pest or weed control at 16 g/ha (wild oat (Avena fatua); [13]): 80%
pest or weed control at 31 g/ha (wild oat (Avena fatua); [14]): 98%
pest or weed control at 62 g/ha (wild oat (Avena fatua); [15]): 98%
pest or weed control at 125 g/ha (wild oat (Avena fatua); [15]): 100%
pest or weed control at 16 g/ha [10, 11]: 0%
pest or weed control at 31 g/ha [10, 12]: 0%
pest or weed control at 62 g/ha [10, 11]: 0%
pest or weed control at 125 g/ha [10, 11]: 0%
pest or weed control at 16 g/ha [10, 13]: 0%
pest or weed control at 31 g/ha [10, 14]: 0%
pest or weed control at 62 g/ha [10, 15]: 0%
pest or weed control at 125 g/ha [10, 15]: 0%

From patent US20100267561A1, “HERBICIDAL PYRIDAZINONE DERIVATIVES” (priority 2007, published 2010)
